Reference: patent publication US9708318B2, “Bicyclic heterocycles as FGFR4 inhibitors” (Incyte Corporation, priority 2015, dated 2017)
Read-outs that look alike come from different tables or passages of the source.

Legend:
FGFR3 enzyme = FGFR3 enzyme (Homo sapiens (Human), UniProt P22607); experiment: FGFR Enzymatic Assay (FRET peptide phosphorylation), FGFR3; assay type: biochemical; conditions: for FGFR1/FGFR3 IC50 ratio / FGFR4/FGFR3 IC50 ratio: FGFR3 selectivity; for IC50: read-out: FGFR3 IC50
Sequence of FGFR3 enzyme (P22607 23-806): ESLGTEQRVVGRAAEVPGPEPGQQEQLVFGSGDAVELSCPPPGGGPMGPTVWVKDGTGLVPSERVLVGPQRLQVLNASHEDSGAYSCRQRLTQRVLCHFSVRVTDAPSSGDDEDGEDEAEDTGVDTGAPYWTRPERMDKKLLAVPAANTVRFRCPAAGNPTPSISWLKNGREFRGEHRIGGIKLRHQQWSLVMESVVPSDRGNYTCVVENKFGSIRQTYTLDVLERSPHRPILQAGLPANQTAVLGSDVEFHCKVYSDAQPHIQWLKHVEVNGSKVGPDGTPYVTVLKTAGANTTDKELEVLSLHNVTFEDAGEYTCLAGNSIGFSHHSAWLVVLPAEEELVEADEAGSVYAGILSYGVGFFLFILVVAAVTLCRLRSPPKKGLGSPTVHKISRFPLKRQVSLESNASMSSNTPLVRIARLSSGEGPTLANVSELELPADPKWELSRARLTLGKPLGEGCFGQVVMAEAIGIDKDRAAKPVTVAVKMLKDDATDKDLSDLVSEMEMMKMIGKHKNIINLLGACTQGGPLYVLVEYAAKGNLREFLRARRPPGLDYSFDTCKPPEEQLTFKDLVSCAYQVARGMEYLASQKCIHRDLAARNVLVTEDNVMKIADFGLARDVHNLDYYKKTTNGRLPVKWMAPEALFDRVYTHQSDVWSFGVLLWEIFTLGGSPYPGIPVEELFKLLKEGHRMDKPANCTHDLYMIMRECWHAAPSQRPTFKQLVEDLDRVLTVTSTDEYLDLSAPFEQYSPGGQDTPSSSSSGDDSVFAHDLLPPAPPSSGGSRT
Experimental: (§1) The inhibitor potency of the exemplified compounds was measured in an enzyme assay that measures peptide phosphorylation using FRET measurements to detect product formation. Inhibitors were serially diluted in DMSO and a volume of 0.5 μL was transferred to the wells of a 384-well plate.
(§2) GraphPad prism3 was used to analyze the data.

FGFR2 = FGFR2 (Homo sapiens (Human), UniProt P21802); experiment: FGFR Enzymatic Assay (FRET peptide phosphorylation), FGFR2; assay type: biochemical
Sequence of FGFR2 (P21802 22-821): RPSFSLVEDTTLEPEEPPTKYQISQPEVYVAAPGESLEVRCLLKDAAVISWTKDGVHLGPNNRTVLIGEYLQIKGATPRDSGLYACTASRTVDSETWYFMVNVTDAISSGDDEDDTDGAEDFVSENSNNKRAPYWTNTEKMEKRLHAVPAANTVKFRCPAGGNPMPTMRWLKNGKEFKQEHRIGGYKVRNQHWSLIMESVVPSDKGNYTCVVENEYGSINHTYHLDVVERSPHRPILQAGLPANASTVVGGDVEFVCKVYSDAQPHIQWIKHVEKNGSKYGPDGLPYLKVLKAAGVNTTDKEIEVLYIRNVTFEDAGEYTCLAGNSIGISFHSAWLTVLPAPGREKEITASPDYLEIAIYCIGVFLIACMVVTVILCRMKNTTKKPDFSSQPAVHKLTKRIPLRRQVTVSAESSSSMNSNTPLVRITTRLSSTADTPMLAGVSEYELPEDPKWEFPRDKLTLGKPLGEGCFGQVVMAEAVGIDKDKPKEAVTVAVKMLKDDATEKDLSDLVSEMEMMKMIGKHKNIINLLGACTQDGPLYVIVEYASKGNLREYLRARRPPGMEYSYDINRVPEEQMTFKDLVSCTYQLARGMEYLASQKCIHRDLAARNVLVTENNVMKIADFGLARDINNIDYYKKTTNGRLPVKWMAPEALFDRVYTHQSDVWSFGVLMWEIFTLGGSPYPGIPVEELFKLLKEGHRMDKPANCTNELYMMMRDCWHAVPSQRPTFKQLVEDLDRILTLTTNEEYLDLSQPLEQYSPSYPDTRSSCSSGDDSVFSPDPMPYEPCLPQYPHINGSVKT
Experimental: as §1
(§3) The enzymes were purchased from Millipore or Invitrogen.
as §2

FGFR1 = FGFR1 (Homo sapiens (Human), UniProt P11362); experiment: FGFR Enzymatic Assay (FRET peptide phosphorylation), FGFR1
Sequence of FGFR1 (P11362 22-822): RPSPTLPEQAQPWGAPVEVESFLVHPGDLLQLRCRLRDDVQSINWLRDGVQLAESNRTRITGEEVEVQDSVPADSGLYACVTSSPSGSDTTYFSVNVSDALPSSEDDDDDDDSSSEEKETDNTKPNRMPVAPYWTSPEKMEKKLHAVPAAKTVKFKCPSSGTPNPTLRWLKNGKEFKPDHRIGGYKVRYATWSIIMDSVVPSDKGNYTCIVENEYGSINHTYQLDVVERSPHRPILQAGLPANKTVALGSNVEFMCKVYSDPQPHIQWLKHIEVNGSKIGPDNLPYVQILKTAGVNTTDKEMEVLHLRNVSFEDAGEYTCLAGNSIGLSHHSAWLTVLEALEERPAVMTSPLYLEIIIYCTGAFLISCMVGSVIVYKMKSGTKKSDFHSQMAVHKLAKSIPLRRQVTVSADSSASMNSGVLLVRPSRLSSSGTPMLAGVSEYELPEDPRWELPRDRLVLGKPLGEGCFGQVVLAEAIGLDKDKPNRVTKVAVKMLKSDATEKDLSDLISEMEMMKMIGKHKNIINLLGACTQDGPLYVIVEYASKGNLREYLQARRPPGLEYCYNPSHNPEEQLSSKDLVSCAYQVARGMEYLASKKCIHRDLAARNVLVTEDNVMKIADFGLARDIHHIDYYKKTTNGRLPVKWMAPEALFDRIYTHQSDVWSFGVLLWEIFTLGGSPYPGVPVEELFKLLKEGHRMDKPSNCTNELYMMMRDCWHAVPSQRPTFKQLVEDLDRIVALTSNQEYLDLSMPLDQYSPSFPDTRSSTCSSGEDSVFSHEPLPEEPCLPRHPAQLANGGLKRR

FGFR4 = FGFR4 (Homo sapiens (Human), UniProt P22455); experiment: FGFR Enzymatic Assay (FRET peptide phosphorylation), FGFR4; assay type: biochemical; conditions: for FGFR1/FGFR4 IC50 ratio / FGFR2/FGFR4 IC50 ratio / FGFR3/FGFR4 IC50 ratio: FGFR4 selectivity
Sequence of FGFR4 (P22455 22-802): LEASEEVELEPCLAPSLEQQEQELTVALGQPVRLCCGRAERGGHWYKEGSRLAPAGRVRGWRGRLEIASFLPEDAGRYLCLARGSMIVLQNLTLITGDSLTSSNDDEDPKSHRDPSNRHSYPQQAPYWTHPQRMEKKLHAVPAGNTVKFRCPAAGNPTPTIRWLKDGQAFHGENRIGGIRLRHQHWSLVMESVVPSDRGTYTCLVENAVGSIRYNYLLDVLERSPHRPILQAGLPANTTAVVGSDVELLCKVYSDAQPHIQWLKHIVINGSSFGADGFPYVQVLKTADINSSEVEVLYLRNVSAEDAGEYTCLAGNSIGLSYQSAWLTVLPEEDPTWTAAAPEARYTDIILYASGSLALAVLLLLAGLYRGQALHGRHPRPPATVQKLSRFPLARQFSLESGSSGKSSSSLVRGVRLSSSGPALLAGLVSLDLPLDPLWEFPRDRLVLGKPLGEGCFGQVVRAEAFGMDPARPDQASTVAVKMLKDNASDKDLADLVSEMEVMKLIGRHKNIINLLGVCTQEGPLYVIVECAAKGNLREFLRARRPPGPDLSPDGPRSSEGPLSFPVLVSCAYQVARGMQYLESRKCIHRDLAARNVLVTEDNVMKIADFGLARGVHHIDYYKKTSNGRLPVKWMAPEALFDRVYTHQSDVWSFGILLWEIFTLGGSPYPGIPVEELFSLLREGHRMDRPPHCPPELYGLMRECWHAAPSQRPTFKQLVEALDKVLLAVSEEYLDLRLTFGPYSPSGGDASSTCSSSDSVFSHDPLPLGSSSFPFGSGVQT
Experimental: as §1, §3, §2

[1] = FGFR1 IC50 (nM), pre-incubated for 4 hours
[2] = pre-incubated for 5 to 10 minutes
[3] = read-out: FGFR1 IC50, pre-incubated for 4 hours
[4] = FGFR1 IC50 (nM), pre-incubated for 5 to 10 minutes

Row | FGFR1/FGFR3 IC50 ratio (FGFR3 enzyme; pre-incubated for 4 hours) | IC50 (FGFR3 enzyme; pre-incubated for 4 hours) | IC50 (FGFR2; pre-incubated for 4 hours) | IC50 (FGFR1; [1]) | IC50 (FGFR4; pre-incubated for 4 hours) | IC50 (FGFR3 enzyme; [2]) | IC50 (FGFR2; [2]) | IC50 (FGFR1; read-out: FGFR1 IC50, pre-incubated for 5 to 10 minutes) | IC50 (FGFR1; [3]) | FGFR1/FGFR4 IC50 ratio (FGFR4; [2]) | FGFR2/FGFR4 IC50 ratio (FGFR4; [2]) | FGFR3/FGFR4 IC50 ratio (FGFR4; [2]) | FGFR1/FGFR4 IC50 ratio (FGFR4; pre-incubated for 4 hours) | FGFR2/FGFR4 IC50 ratio (FGFR4; pre-incubated for 4 hours) | FGFR3/FGFR4 IC50 ratio (FGFR4; pre-incubated for 4 hours) | IC50 (FGFR4; [2]) | FGFR4/FGFR3 IC50 ratio (FGFR3 enzyme; pre-incubated for 4 hours) | IC50 (FGFR1; [4]) | Compound
1 | >5 | 0.01 to 0.03 µM | 0.01 to 0.03 µM | 30 to 200 nM | 0.01 to 0.03 µM |  |  |  |  |  |  |  |  |  |  |  |  |  | COc1cc(OC)c(F)c(N2Cc3cnc(-c4ccc(C#N)nc4)cc3C3(CC3)C2=O)c1F [Example 20, 5-(2′-(2,6-difluoro-3,5-dimethoxyphenyl)-3′-oxo-2′,3′-dihydro-1′H-spiro[cyclopropane-1,4′-[2,7]naphthyridine]-6′-yl)picolinonitrile]
2 | >3 | 0.03 to 0.2 µM | 0.03 to 0.2 µM |  | < 0.01 µM | 0.03 to 0.2 µM | 0.03 to 0.2 µM | > 200 nM | > 200 nM | >50 | >20 | >10 | >50 | >25 | >10 | < 0.01 µM |  |  | COc1cc(OC)c(F)c(N2Cc3cnc(-c4cncc(C(=O)N5CCOCC5)c4)cc3C3(CC3)C2=O)c1F [Example 13, 2′-(2,6-difluoro-3,5-dimethoxyphenyl)-6′-(5-(morpholine-4-carbonyl)pyridin-3-yl)-1′H-spiro[cyclopropane-1,4′-[2,7]naphthyridin]-3′(2′H)-one]
3 | >5 | < 0.01 µM | < 0.01 µM | 30 to 200 nM | 0.03 to 0.2 µM |  |  |  |  |  |  |  |  |  |  |  | >10 |  | COc1cc(OC)c(F)c(N2Cc3cnc(-c4cn(C)nc4C)cc3N(Cc3ccncn3)C2=O)c1F [Example 65, 3-(2,6-difluoro-3,5-dimethoxyphenyl)-7-(1,3-dimethyl-1H-pyrazol-4-yl)-1-(pyrimidin-4-ylmethyl)-3,4-dihydropyrido[4,3-d]pyrimidin-2(1H)-one]
4 | >5 | < 0.01 µM | < 0.01 µM | 30 to 200 nM | 0.03 to 0.2 µM |  |  |  |  |  |  |  |  |  |  |  | >10 |  | COc1cc(OC)c(F)c(N2Cc3cnc(-c4ccc(C5(C#N)CCC5)nc4)cc3N(c3ccncn3)C2=O)c1F [Example 135, 1-(5-(3-(2,6-difluoro-3,5-dimethoxyphenyl)-2-oxo-1-(pyrimidin-4-yl)-1,2,3,4-tetrahydropyrido[4,3-d]pyrimidin-7-yl)pyridin-2-yl)cyclobutanecarbonitrile]
5 |  | 0.03 to 0.2 µM | 0.03 to 0.2 µM | 30 to 200 nM | < 0.01 µM |  |  |  |  |  |  |  | >10 | >10 | >10 |  |  |  | COc1cc(OC)c(F)c(N2Cc3cnc(-c4[nH]ncc4C#N)cc3C3(CC3)C2=O)c1F [Example 171, 5-(2′-(2,6-difluoro-3,5-dimethoxyphenyl)-3′-oxo-2′,3′-dihydro-1′H-spiro[cyclopropane-1,4′-[2,7]naphthyridine]-6′-yl)-1H-pyrazole-4-carbonitrile]
6 | >5 | < 0.01 µM | < 0.01 µM | 10 to 30 nM | 0.01 to 0.03 µM |  |  |  |  |  |  |  |  |  |  |  | >5 |  | CCN1C(=O)N(c2c(F)c(OC)cc(OC)c2F)Cc2cnc(-c3ccc(C(C)(C)C#N)nc3)cc21 [Example 26, 2-(5-(3-(2,6-difluoro-3,5-dimethoxyphenyl)-1-ethyl-2-oxo-1,2,3,4-tetrahydropyrido[4,3-d]pyrimidin-7-yl)pyridin-2-yl)-2-methylpropanenitrile]
7 |  |  |  |  |  | < 0.01 µM | < 0.01 µM |  |  |  |  |  |  |  |  | 0.03 to 0.2 µM |  | 30 to 200 nM | COCCN1C(=O)N(c2c(F)c(OC)cc(OC)c2F)Cc2cnc(-c3ccc(C4(C#N)CCC4)nc3)cc21 [Example 139, 1-(5-(3-(2,6-difluoro-3,5-dimethoxyphenyl)-1-(2-methoxyethyl)-2-oxo-1,2,3,4-tetrahydropyrido[4,3-d]pyrimidin-7-yl)pyridin-2-yl)cyclobutanecarbonitrile]
8 | >10 | < 0.01 µM | < 0.01 µM | 10 to 30 nM | 0.01 to 0.03 µM |  |  |  |  |  |  |  |  |  |  |  | >5 |  | CCN1C(=O)N(c2c(F)c(OC)cc(OC)c2F)Cc2cnc(-c3ccc(C(=O)NC4CC4)nc3)cc21 [Example 176, N-cyclopropyl-5-(3-(2,6-difluoro-3,5-dimethoxyphenyl)-1-ethyl-2-oxo-1,2,3,4-tetrahydropyrido[4,3-d]pyrimidin-7-yl)picolinamide]
9 |  |  |  |  |  | < 0.01 µM | < 0.01 µM |  |  |  |  |  |  |  |  | 0.01 to 0.03 µM |  | 10 to 30 nM | COc1cc(OC)c(F)c(N2Cc3cnc(-c4cn(C)nc4C)cc3N(c3ccc4c(c3)CC(=O)N4)C2=O)c1F [Example 119, 3-(2,6-difluoro-3,5-dimethoxyphenyl)-7-(1,3-dimethyl-1H-pyrazol-4-yl)-1-(2-oxoindolin-5-yl)-3,4-dihydropyrido[4,3-d]pyrimidin-2(1H)-one]
10 |  | > 0.2 µM | > 0.2 µM |  | 0.01 to 0.03 µM |  |  |  | > 200 nM |  |  |  | >100 | >100 | >50 |  |  |  | COc1cc(OC)c(F)c(N2Cc3cnc(-c4nn(CC5CCOCC5)cc4C#N)cc3C3(CC3)C2=O)c1F [Example 173, 3-(2′-(2,6-difluoro-3,5-dimethoxyphenyl)-3′-oxo-2′,3′-dihydro-1′H-spiro[cyclopropane-1,4′-[2,7]naphthyridine]-6′-yl)-1-((tetrahydro-2H-pyran-4-yl)methyl)-1H-pyrazole-4-carbonitrile]
11 | >10 | < 0.01 µM | 0.01 to 0.03 µM | 30 to 200 nM | 0.01 to 0.03 µM |  |  |  |  |  |  |  |  |  |  |  | >3 |  | COc1cc(OC)c(F)c(N2Cc3cnc(-c4cnn(CCC5CCN(S(C)(=O)=O)CC5)c4)cc3C3(CC3)C2=O)c1F [Example 148, 2′-(2,6-difluoro-3,5-dimethoxyphenyl)-6′-(1-(2-(1-(methylsulfonyl)piperidin-4-yl)ethyl)-1H-pyrazol-4-yl)-1′H-spiro[cyclopropane-1,4′-[2,7]naphthyridin]-3′(2′H)-one]
12 | >3 | < 0.01 µM | < 0.01 µM | 10 to 30 nM | 0.03 to 0.2 µM |  |  |  |  |  |  |  |  |  |  |  | >5 |  | CNS(=O)(=O)c1cccc(N2C(=O)N(c3c(F)c(OC)cc(OC)c3F)Cc3cnc(-c4cn(C)nc4C)cc32)c1 [Example 111, 3-(3-(2,6-difluoro-3,5-dimethoxyphenyl)-7-(1,3-dimethy-1H-pyrazol-4-yl)-2-oxo-3,4-dihydropyrido[4,3-d]pyrimidin-1(2H)-yl)-N-methylbenzenesulfonamide]
13 | >5 | < 0.01 µM | < 0.01 µM | 10 to 30 nM | < 0.01 µM |  |  |  |  |  |  |  |  |  |  |  |  |  | CNC(=O)c1ccc(-c2cc3c(cn2)CN(c2c(F)c(OC)cc(OC)c2F)C(=O)C32CC2)cc1 [Example 19, 4-(2′-(2,6-difluoro-3,5-dimethoxyphenyl)-3′-oxo-2′,3′-dihydro-1′H-spiro[cyclopropane-1,4′-[2,7]naphthyridine]-6′-yl)-N-methylbenzamide]

Row | Compound | FGFR1/FGFR3 IC50 ratio (FGFR3 enzyme; pre-incubated for 4 hours) | IC50 (FGFR3 enzyme; pre-incubated for 4 hours) | IC50 (FGFR2; pre-incubated for 4 hours) | IC50 (FGFR1; [1]) | IC50 (FGFR4; pre-incubated for 4 hours) | IC50 (FGFR3 enzyme; [2]) | IC50 (FGFR2; [2]) | IC50 (FGFR1; read-out: FGFR1 IC50, pre-incubated for 5 to 10 minutes) | IC50 (FGFR1; [3]) | FGFR1/FGFR4 IC50 ratio (FGFR4; [2]) | FGFR2/FGFR4 IC50 ratio (FGFR4; [2]) | FGFR3/FGFR4 IC50 ratio (FGFR4; [2]) | FGFR1/FGFR4 IC50 ratio (FGFR4; pre-incubated for 4 hours) | FGFR2/FGFR4 IC50 ratio (FGFR4; pre-incubated for 4 hours) | FGFR3/FGFR4 IC50 ratio (FGFR4; pre-incubated for 4 hours) | IC50 (FGFR4; [2]) | FGFR4/FGFR3 IC50 ratio (FGFR3 enzyme; pre-incubated for 4 hours) | IC50 (FGFR1; [4])
14 | COc1cc(OC)c(F)c(N2Cc3cnc(-c4cn(C)nc4C)cc3N(C[C@H]3CCOC3)C2=O)c1F [Example 108, (R)-3-(2,6-difluoro-3,5-dimethoxyphenyl)-7-(1,3-dimethyl-1H-pyrazol-4-yl)-1-((tetrahydrofuran-3-yl)methyl)-3,4-dihydropyrido[4,3-d]pyrimidin-2(1H)-one] | >3 | 0.01 to 0.03 µM | 0.01 to 0.03 µM | 30 to 200 nM | 0.03 to 0.2 µM |  |  |  |  |  |  |  |  |  |  |  | >3 | 
